The source made the active and inactive calls. The rule behind the calls is not given here.
Tests used:
Mus musculus = species: Mus musculus; experiment: Inhibition of spontaneous calcium oscillations in Swiss Webster mouse neocortical neurons at 0.01 nM to 1000 nM measured for 2 mins by Fluo-3 AM dye based FLIPR assay
NCI-H460 = experiment: Cytotoxicity against human NCI-H460 cells after 48 hrs by MTT assay; assay type: functional, cell-based; conditions: NCI-H460, 48 h

SMILES: O=C(CCCCCC=C(Cl)Cl)NCCc1ccccc1
- inhibition (Mus musculus): Active
- IC50 (NCI-H460): > 10 µM

SMILES: NCCc1ccccc1
- inhibition (Mus musculus): Active

SMILES: C=CC[C@@H](C[C@@H](C[C@@H](C[C@@H](C[C@@H](C[C@@H](C[C@@H](C[C@@H](C[C@@H](C[C@@H](CCCCC)OC)OC)OC)OC)OC)OC)OC)OC)OC)OC
- IC50 (NCI-H460): > 10 µM

Source: ChEMBL document CHEMBL4190300, “Discovery and Synthesis of Caracolamide A, an Ion Channel Modulating Dichlorovinylidene Containing Phenethylamide from a Panamanian Marine Cyanobacterium cf. Symploca Species” (J Nat Prod, 2017)
